# Experimental data from US9856511B2, “Protease deubiquitinating inhibitor screening” (priority 2011, dated 2018).
# Legend:
# [1] = biological target: T1, USP14 (Homo sapiens, UniProt P54578); experiment: HA-UbVS competitive active-site labelling of 19S RP or 26S proteasomes; assay type: binding; details: 19S RP or 26S proteasomes incubated with b-AP15
# T1 construct: purchased Boston Biochem E-366 (19S), E-365 (26S)
# Description: (§1) The deubiquitinating activity of the proteasome is attributed to the action of three DUBs, UCHL5, USP14 and POH1, all localized within the 19S RP 26-28. Both UCHL5 and USP14 are sensitive to N-ethylmaleimide (NEM), a general inhibitor of cysteine proteases, whereas POH1 is insensitive to inhibition by NEM but sensitive to metal chelators such as N,N,N,N-tetrakis-(2-pyridylmethyl)ethylenediamine (TPEN) (29). […] To identify specifically which DUBs were inhibited by b-AP15 treatment, competitive labelling experiments were performed using hemagglutinin tagged ubiquitin vinylsulphonone (HA-UbVS), an active site directed probe that irreversibly reacts with DUBs of the cysteine class (26).
# (§2) For labelling of DUBs in cell lysates sub confluent cells were harvested by trypsinization, washed three times with PBS, and centrifuged at 1500 RPM for 5 min. Cell pellets were lysed with buffer (50 mM HEPES pH 7.4, 250 mM sucrose, 10 mM MgCl2, 2 mM ATP, 1 mM DTT) on ice for 15 min. Debris was removed by centrifugation and 25 μg of protein was labelled with 1 μM HA-UbVS for 30 min at 37° C. Samples were resolved by SDS-PAGE and analyzed by immunoblotting with indicated antibodies.
# (§3) 19S RP were pre-treated with DMSO, NEM (10 mM) b-AP15 (50 μM) (FIG. 3a) or TPEN (250 μM) (FIG. 3b) followed by addition of Ub-GFP and immunoblotting with anti-GFP antibodies. […]
# [2] = biological target: T2, UCHL5 (Homo sapiens, UniProt Q9Y5K5); experiment: as above; assay type: binding; details: 19S RP or 26S proteasomes incubated with b-AP15
# T2 construct: purchased Boston Biochem E-366 (19S), E-365 (26S)
# Description: as §1, §2, §3
# [3] = test system: HCT-116 cells; experiment: Cell-cycle analysis, propidium iodide staining and flow cytometry; assay type: cell-based
# Experimental: The turnover of many cell cycle regulatory proteins is controlled by the UPS including inhibitors of the cyclin-dependent kinases p21 Cip1, p27 Kip1 and the tumor suppressor p53 (4). Treatment with b-AP15 increased their levels in a dose dependent manner.
# For determination of cell cycle HCT-116 cells were treated with b-AP15 or DMSO Cells were harvested by trypsinisation, washed and fixed in 70% ice cold EtOH for 12 h. Cells were re-suspended in staining solution containing propidium iodide (50 μg/ml) and RNAse A (0.5 μg/ml) in PBS. Samples were run on BD FACScalibur. The percentage of cells in each phase of the cell cycle was determined using ModFit software.
# b-AP15 inhibits degradation of ubiquitin-tagged YFP in a proteasome reporter cell line (FIG. 1a). Levels of ^UbG76V-YFP accumulation were determined by flow cytometry and immunoblotting; immunoblot of ubiquitin conjugation in HCT-116 cells treated with b-AP15 (1 μM) or bortezomib (100 nM) (FIG. 1b). Immunoblot of ubiquitin conjugates, caspase 3 activation PARP cleavage, p53. P21^Cip1 and p^Kip1 in HCT-116 cells following 24 h treatment with the indicated concentrations of b-AP15 (FIG. 1c). […]
compound,measurement,setting,value
C=CC(=O)N1C/C(=C\c2ccc([N+](=O)[O-])cc2)C(=O)/C(=C/c2ccc([N+](=O)[O-])cc2)C1 [b-AP15],Ub-VS labelling of USP14,[1],abolished Ub-VS labelling
same,Ub-VS labelling of UCHL5,[2],abolished Ub-VS labelling
same,cell cycle effect,[3],cell cycle arrest in the G2/M phase boundary
